Test results published in BindingDB's records for doi:10.1016/j.bmcl.2004.10.085 (Bristol-Myers Squibb Pharmaceutical Research Institute, 2004).

Target: T1, Androgen receptor (Homo sapiens, UniProt P10275)
T1 sequence (P10275 whole entry): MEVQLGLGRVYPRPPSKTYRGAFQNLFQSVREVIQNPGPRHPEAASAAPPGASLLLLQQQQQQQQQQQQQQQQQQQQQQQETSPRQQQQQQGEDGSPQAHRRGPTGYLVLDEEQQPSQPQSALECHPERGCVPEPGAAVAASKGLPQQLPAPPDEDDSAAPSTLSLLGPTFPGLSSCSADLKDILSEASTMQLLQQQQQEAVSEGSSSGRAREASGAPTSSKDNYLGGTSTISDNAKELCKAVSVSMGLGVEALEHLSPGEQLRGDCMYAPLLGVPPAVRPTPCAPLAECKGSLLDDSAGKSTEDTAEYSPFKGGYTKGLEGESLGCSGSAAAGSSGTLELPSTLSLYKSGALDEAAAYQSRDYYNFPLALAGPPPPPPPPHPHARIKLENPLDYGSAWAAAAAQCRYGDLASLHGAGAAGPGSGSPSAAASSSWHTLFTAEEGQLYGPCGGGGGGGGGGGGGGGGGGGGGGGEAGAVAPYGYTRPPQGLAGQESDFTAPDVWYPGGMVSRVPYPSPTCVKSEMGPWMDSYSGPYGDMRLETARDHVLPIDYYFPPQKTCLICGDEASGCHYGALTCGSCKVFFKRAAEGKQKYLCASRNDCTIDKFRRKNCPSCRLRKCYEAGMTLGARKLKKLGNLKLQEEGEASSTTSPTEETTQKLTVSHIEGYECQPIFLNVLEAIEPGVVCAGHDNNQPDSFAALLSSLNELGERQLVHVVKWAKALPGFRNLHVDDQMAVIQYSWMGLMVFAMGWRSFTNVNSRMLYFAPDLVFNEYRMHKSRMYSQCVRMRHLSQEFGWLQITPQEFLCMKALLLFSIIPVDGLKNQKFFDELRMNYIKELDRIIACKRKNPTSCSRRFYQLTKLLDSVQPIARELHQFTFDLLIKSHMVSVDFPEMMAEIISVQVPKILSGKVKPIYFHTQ
Assay: Inhibition of androgen dependent human prostate cancer cell […] proliferation

| IC50 | SMILES |
| --- | --- |
| 0.4 nM | Oc1c2c(c(O)n1-c1cccc(C(F)(F)F)c1)C1C=CC2CC1 [(2R,6S)-4-(3-Trifluoromethyl-phenyl)-4-aza-tricyclo[5.2.2.0*2,6*]undec-8-ene-3,5-dione] |
| 148 nM | Oc1c2c(c(O)n1-c1cccc(C(F)(F)F)c1)C1C=CC2[C@H]2C[C@@H]12 [(2R,6S,8S,10R)-4-[3-(trifluoromethyl)phenyl]-4-azatetracyclo[5.3.2.0^{2,6}.0^{8,10}]dodec-11-ene-3,5-dione] |
| 179 nM | Oc1c2c(c(O)n1-c1cccc(C(F)(F)F)c1)C1CCCC2CC1 [(2S,6R)-4-(3-Trifluoromethyl-phenyl)-4-aza-tricyclo[5.3.2.0*2,6*]dodecane-3,5-dione] |
| 180 nM | Oc1c2c(c(O)n1-c1ccc(Cl)c(Cl)c1)C1C=CC2C1 [(2R,6S)-4-(3,4-Dichloro-phenyl)-4-aza-tricyclo[5.2.1.0*2,6*]dec-8-ene-3,5-dione] |

| SMILES | IC50 |
| --- | --- |
| CN1C(=O)C2C=CC1c1c2c(O)n(-c2ccc([N+](=O)[O-])c3ccccc23)c1O [(2R,6R)-8-Methyl-4-(4-nitro-naphthalen-1-yl)-4,8-diaza-tricyclo[5.2.2.0*2,6*]undec-10-ene-3,5,9-trione] | 8460 nM |
